Experimental data published in patent publication US20240376084A1, “INHIBITORS OF ALPHA-HEMOLYSIN OF STAPHYLOCOCCUS AUREUS” (Helmholtz-Zentrum Fur Infektionsforschung GmbH, priority 2021, published 2024).

Key:
[1] = molecular target: hemolysin alpha from Staphylococcus aureus (Staphylococcus aureus, UniProt P09616); experiment: cell-based
[2] = molecular target: S. aureus Alpha hemolysin (Staphylococcus aureus, UniProt P09616); experiment: cell-based; conditions: A549-LDH Assay activity
Sequence of S. aureus Alpha hemolysin (P09616 27-319 limits assumed): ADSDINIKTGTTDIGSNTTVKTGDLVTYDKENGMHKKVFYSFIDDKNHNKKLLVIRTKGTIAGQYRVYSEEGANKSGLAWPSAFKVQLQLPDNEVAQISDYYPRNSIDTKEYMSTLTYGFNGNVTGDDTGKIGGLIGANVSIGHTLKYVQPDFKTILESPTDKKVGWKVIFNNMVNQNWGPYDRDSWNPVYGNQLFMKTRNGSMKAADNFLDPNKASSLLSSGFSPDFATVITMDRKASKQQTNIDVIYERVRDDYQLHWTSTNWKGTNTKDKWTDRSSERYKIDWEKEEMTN

Sequence of hemolysin alpha from Staphylococcus aureus (P09616 27-319 limits assumed): as above

**Q.** Which results are given for CCc1ccc(NS(=O)(=O)c2cc3[nH]c(=O)c(=O)[nH]c3cc2C)cc1 [Compound 92, N-(4-ethylphenyl)-7-methyl-2,3-dioxo-1,2,3,4-tetrahydroquinoxaline-6-sulfonamide]?
**A.** IC50 [1]: < 30 nM; EC50 [2]: < 30 nM

**Q.** How did the IC50 [1] turn out when Cc1cc2[nH]c(=O)c(=O)[nH]c2cc1S(=O)(=O)Nc1ccc(C(C)(C)C)cc1 [Compound 83, N-(4-(tert-butyl)phenyl)-7-methyl-2,3-dioxo-1,2,3,4-tetrahydroquinoxaline-6-sulfonamide] was run?
**A.** 100 to 1000 nM

**Q.** What about the EC50 [2] of the same compound?
**A.** 30 to 100 nM

**Q.** What does the source list for Cc1ccc(-c2ccc(NS(=O)(=O)c3cc4[nH]c(=O)c(=O)[nH]c4cc3C)cc2Cl)cc1Cl [Compound 286, N-[3-chloro-4-(3-chloro-4-methyl-phenyl)phenyl]-7-methyl-2,3-dioxo-1,4-dihydroquinoxaline-6-sulfonamide]?
**A.** EC50 [1]: 30 to 100 nM; EC50 [2]: 100 to 1000 nM

**Q.** How did the IC50 [1] turn out when Cc1cc2[nH]c(=O)c(=O)[nH]c2cc1S(=O)(=O)Nc1ccc(C2CC2)cc1 [Compound 53, N-(4-cyclopropylphenyl)-7-methyl-2,3-dioxo-1,2,3,4-tetrahydroquinoxaline-6-sulfonamide] was run?
**A.** 30 to 100 nM

**Q.** What about the EC50 [2] of the same compound?
**A.** < 30 nM

**Q.** For CN(C)c1cccc(-c2ccc(NS(=O)(=O)c3cc4[nH]c(=O)c(=O)[nH]c4cc3Cl)cc2Cl)c1 [Compound 9, 7-chloro-N-(2-chloro-3′-(dimethylamino)-[1,1′-biphenyl]-4-yl)-2,3-dioxo-1,2,3,4-tetrahydroquinoxaline-6-sulfonamide], which IC50 [1] is on record?
**A.** < 30 nM

**Q.** What about the EC50 [2] of the same compound?
**A.** 100 to 1000 nM

**Q.** How did the IC50 [1] turn out when CCc1cc2[nH]c(=O)c(=O)[nH]c2cc1S(=O)(=O)Nc1ccc(C2CC2)cc1 [Compound 67, N-(4-cyclopropylphenyl)-7-ethyl-2,3-dioxo-1,2,3,4-tetrahydroquinoxaline-6-sulfonamide] was run?
**A.** 30 to 100 nM

**Q.** What about the EC50 [2] of the same compound?
**A.** 30 to 100 nM

**Q.** Which IC50 [1] does the source give for Cc1ccccc1-c1ccc(NS(=O)(=O)c2cc3[nH]c(=O)c(=O)[nH]c3cc2C)cc1 [Compound 89, 7-methyl-N-(2′-methyl-[1,1′-biphenyl]-4-yl)-2,3-dioxo-1,2,3,4-tetrahydroquinoxaline-6-sulfonamide] here?
**A.** 100 to 1000 nM

**Q.** And the EC50 [2]?
**A.** 100 to 1000 nM

**Q.** O=c1[nH]c2cc(Cl)c(S(=O)(=O)Nc3ccc(C(F)(F)F)cc3)cc2[nH]c1=O [Compound 93, 7-chloro-2,3-dioxo-N-(4-(trifluoromethyl)phenyl)-1,2,3,4-tetrahydroquinoxaline-6-sulfonamide] was tested. Which IC50 [1] did it give?
**A.** 100 to 1000 nM

**Q.** What about the EC50 [2] of the same compound?
**A.** 100 to 1000 nM

**Q.** For Cc1cc2[nH]c(=O)c(=O)[nH]c2cc1S(=O)(=O)Nc1ccc(-c2ccc3nn[nH]c3c2)c(Cl)c1 [Compound 256, N-[4-(1H-benzotriazol-5-yl)-3-chloro-phenyl]-7-methyl-2,3-dioxo-1,4-dihydroquinoxaline-6-sulfonamide], which EC50 [1] is on record?
**A.** < 30 nM

**Q.** What about the EC50 [2] of the same compound?
**A.** 30 to 100 nM

**Q.** Which EC50 [1] does the source give for Cc1cc2[nH]c(=O)c(=O)[nH]c2cc1S(=O)(=O)Nc1ccc(-c2cccc(N)c2)c(Cl)c1 [Compound 311, N-(3′-amino-2-chloro-[1,1′-biphenyl]-4-yl)-7-methyl-2,3-dioxo-1,2,3,4-tetrahydroquinoxaline-6-sulfonamide] here?
**A.** 30 to 100 nM

**Q.** And the EC50 [2]?
**A.** < 30 nM

**Q.** Cc1cc(NS(=O)(=O)c2cc3[nH]c(=O)c(=O)[nH]c3cc2Cl)ccc1Br [Compound 141, N-(4-bromo-3-methylphenyl)-7-chloro-2,3-dioxo-1,2,3,4-tetrahydroquinoxaline-6-sulfonamide] was tested. Which IC50 [1] did it give?
**A.** 100 to 1000 nM

**Q.** And the EC50 [2]?
**A.** 100 to 1000 nM

**Q.** With Cc1cc2[nH]c(=O)c(=O)[nH]c2cc1S(=O)(=O)Nc1ccc(-c2ccc(F)cc2)c(N2CCOCC2)c1 [Compound 250, N-[4-(4-fluorophenyl)-3-morpholino-phenyl]-7-methyl-2,3-dioxo-1,4-dihydroquinoxaline-6-sulfonamide] as the compound, how does the EC50 [1] read?
**A.** 100 to 1000 nM

**Q.** And the EC50 [2]?
**A.** 1000 to 6000 nM

**Q.** Which EC50 [1] does the source give for Cc1cc2[nH]c(=O)c(=O)[nH]c2cc1S(=O)(=O)Nc1ccc(-c2ccc(F)cc2)c(OC(F)(F)F)c1 [Compound 327, N-[4-(4-fluorophenyl)-3-(trifluoromethoxy)phenyl]-7-methyl-2,3-dioxo-1,4-dihydroquinoxaline-6-sulfonamide] here?
**A.** 100 to 1000 nM

**Q.** What about the EC50 [2] of the same compound?
**A.** 100 to 1000 nM

**Q.** Which results are given for Cc1cc2[nH]c(=O)c(=O)[nH]c2cc1S(=O)(=O)Nc1cnc(-n2nccn2)c(Cl)c1 [Compound 385, N-[5-chloro-6-(triazol-2-yl)-3-pyridyl]-7-methyl-2,3-dioxo-1,4-dihydroquinoxaline-6-sulfonamide]?
**A.** EC50 [1]: 1000 to 3500 nM; EC50 [2]: 100 to 1000 nM

**Q.** Which results are given for COc1cc(NS(=O)(=O)c2cc3[nH]c(=O)c(=O)[nH]c3cc2C)ccc1-c1ccccc1C [Compound 124, N-(2-methoxy-2′-methyl-[1,1′-biphenyl]-4-yl)-7-methyl-2,3-dioxo-1,2,3,4-tetrahydroquinoxaline-6-sulfonamide]?
**A.** IC50 [1]: 100 to 1000 nM; EC50 [2]: 100 to 1000 nM

**Q.** With O=c1[nH]c2cc(F)c(S(=O)(=O)Nc3ccc(-c4cccnc4)c(Cl)c3)cc2[nH]c1=O [Compound 99, N-(3-chloro-4-(pyridin-3-yl)phenyl)-7-fluoro-2,3-dioxo-1,2,3,4-tetrahydroquinoxaline-6-sulfonamide] as the compound, how does the IC50 [1] read?
**A.** 100 to 1000 nM

**Q.** What about the EC50 [2] of the same compound?
**A.** 1000 to 6000 nM

**Q.** What does the source list for Cc1cc2[nH]c(=O)c(=O)[nH]c2cc1S(=O)(=O)Nc1cc(C)c(-c2sccc2C)c(C)c1 [Compound 132, N-(3,5-dimethyl-4-(3-methylthiophen-2-yl)phenyl)-7-methyl-2,3-dioxo-1,2,3,4-tetrahydroquinoxaline-6-sulfonamide]?
**A.** IC50 [1]: 100 to 1000 nM; EC50 [2]: 100 to 1000 nM

**Q.** Which EC50 [1] does the source give for COc1ccc(-c2ccc(NS(=O)(=O)c3cc4[nH]c(=O)c(=O)[nH]c4cc3C)cc2Br)cc1F [Compound 302, N-[3-bromo-4-(3-fluoro-4-methoxy-phenyl)phenyl]-7-methyl-2,3-dioxo-1,4-dihydroquinoxaline-6-sulfonamide] here?
**A.** < 30 nM

**Q.** And the EC50 [2]?
**A.** < 30 nM

**Q.** Which results are given for Cc1cc2[nH]c(=O)c(=O)[nH]c2cc1S(=O)(=O)Nc1ccc(-c2ccncc2)cc1 [Compound 127, 7-methyl-2,3-dioxo-N-(4-(pyridin-4-yl)phenyl)-1,2,3,4-tetrahydroquinoxaline-6-sulfonamide]?
**A.** IC50 [1]: 100 to 1000 nM; EC50 [2]: 100 to 1000 nM

**Q.** How did the EC50 [1] turn out when COc1ncc(-c2ccc(NS(=O)(=O)c3cc4[nH]c(=O)c(=O)[nH]c4cc3C)cc2Cl)cn1 [Compound 260, N-[3-chloro-4-(2-methoxypyrimidin-5-yl)phenyl]-7-methyl-2,3-dioxo-1,4-dihydroquinoxaline-6-sulfonamide] was run?
**A.** 100 to 1000 nM

**Q.** What about the EC50 [2] of the same compound?
**A.** 100 to 1000 nM

**Q.** What does the source list for Cc1cc2[nH]c(=O)c(=O)[nH]c2cc1S(=O)(=O)Nc1ccc(-c2cccc(O)c2)c(C(F)(F)F)c1 [Compound 366, N-[4-(3-hydroxyphenyl)-3-(trifluoromethyl)phenyl]-7-methyl-2,3-dioxo-1,4-dihydroquinoxaline-6-sulfonamide]?
**A.** EC50 [1]: < 30 nM; EC50 [2]: 30 to 100 nM

**Q.** Which results are given for O=c1[nH]c2cc(Cl)c(S(=O)(=O)Nc3ccc(-c4ccc(F)c(Cl)c4)c(Cl)c3)cc2[nH]c1=O [Compound 19, 7-chloro-N-(2,3′-dichloro-4′-fluoro-[1,1′-biphenyl]-4-yl)-2,3-dioxo-1,2,3,4-tetrahydroquinoxaline-6-sulfonamide]?
**A.** IC50 [1]: < 30 nM; EC50 [2]: 100 to 1000 nM

**Q.** Which results are given for Cc1cc2[nH]c(=O)c(=O)[nH]c2cc1S(=O)(=O)Nc1ccc(OC(F)(F)F)c(Cl)c1 [Compound 324, N-[3-chloro-4-(trifluoromethoxy)phenyl]-7-methyl-2,3-dioxo-1,4-dihydroquinoxaline-6-sulfonamide]?
**A.** EC50 [1]: 30 to 100 nM; EC50 [2]: 30 to 100 nM

**Q.** What does the source list for Cc1cc2[nH]c(=O)c(=O)[nH]c2cc1S(=O)(=O)Nc1ccc(-c2ccc(F)cc2)c(Br)c1 [Compound 244, N-[3-bromo-4-(4-fluorophenyl)phenyl]-7-methyl-2,3-dioxo-1,4-dihydroquinoxaline-6-sulfonamide]?
**A.** EC50 [1]: < 30 nM; EC50 [2]: 30 to 100 nM

**Q.** What does the source list for Cc1cc2[nH]c(=O)c(=O)[nH]c2cc1S(=O)(=O)Nc1ccc(-c2cccc(C(C)C)c2)c(Cl)c1 [Compound 39, N-(2-chloro-3′-isopropyl-[1,1′-biphenyl]-4-yl)-7-methyl-2,3-dioxo-1,2,3,4-tetrahydroquinoxaline-6-sulfonamide]?
**A.** IC50 [1]: 30 to 100 nM; EC50 [2]: 1000 to 6000 nM

**Q.** Which results are given for Cc1cc2[nH]c(=O)c(=O)[nH]c2cc1S(=O)(=O)Nc1ccc(-c2cc[nH]c(=O)c2)c(Cl)c1 [Compound 280, N-[3-chloro-4-(2-oxo-1H-pyridin-4-yl)phenyl]-7-methyl-2,3-dioxo-1,4-dihydroquinoxaline-6-sulfonamide]?
**A.** EC50 [1]: 1000 to 3500 nM; EC50 [2]: 100 to 1000 nM

**Q.** Which EC50 [1] does the source give for Cc1cc2[nH]c(=O)c(=O)[nH]c2cc1S(=O)(=O)Nc1ccc(-c2ccc3c(c2)NC(=O)CO3)c(Cl)c1 [Compound 355, N-[3-chloro-4-(3-oxo-4H-1,4-benzoxazin-6-yl)phenyl]-7-methyl-2,3-dioxo-1,4-dihydroquinoxaline-6-sulfonamide] here?
**A.** < 30 nM

**Q.** What about the EC50 [2] of the same compound?
**A.** < 30 nM

**Q.** With Cc1cc2[nH]c(=O)c(=O)[nH]c2cc1S(=O)(=O)Nc1ccc(C2COC2)cc1 [Compound 384, 7-methyl-N-[4-(oxetan-3-yl)phenyl]-2,3-dioxo-1,4-dihydroquinoxaline-6-sulfonamide] as the compound, how does the EC50 [1] read?
**A.** 1000 to 3500 nM

**Q.** What about the EC50 [2] of the same compound?
**A.** 100 to 1000 nM

**Q.** With CC(=O)c1cccc(-c2ccc(NS(=O)(=O)c3cc4[nH]c(=O)c(=O)[nH]c4cc3C)cc2Cl)c1 [Compound 249, N-[4-(3-acetylphenyl)-3-chloro-phenyl]-7-methyl-2,3-dioxo-1,4-dihydroquinoxaline-6-sulfonamide] as the compound, how does the EC50 [1] read?
**A.** < 30 nM

**Q.** And the EC50 [2]?
**A.** 100 to 1000 nM

**Q.** Cc1ccccc1-c1ccc(NS(=O)(=O)c2cc3[nH]c(=O)c(=O)[nH]c3cc2C)cc1Cl [Compound 90, N-(2-chloro-2′-methyl-[1,1′-biphenyl]-4-yl)-7-methyl-2,3-dioxo-1,2,3,4-tetrahydroquinoxaline-6-sulfonamide] was tested. Which IC50 [1] did it give?
**A.** 100 to 1000 nM

**Q.** And the EC50 [2]?
**A.** 100 to 1000 nM

**Q.** With [2H]C([2H])([2H])c1cc2[nH]c(=O)c(=O)[nH]c2cc1S(=O)(=O)Nc1cnc(-c2ccc(F)cc2)c(Cl)c1 [Compound 392, N-[5-chloro-6-(4-fluorophenyl)-3-pyridyl]-2,3-dioxo-7-(trideuteriomethyl)-1,4-dihydroquinoxaline-6-sulfonamide] as the compound, how does the EC50 [1] read?
**A.** 30 to 100 nM

**Q.** What about the EC50 [2] of the same compound?
**A.** 100 to 1000 nM
